Experiment: Specific surface area by nitrogen gas adsorption (BET)
Assay type: physicochemical
Conditions: relative pressure 0.05 to 0.3 (BET surface area)
Protocol: A specific surface area can be measured by, for example, but is not limited to, BET surface area measurement via nitrogen gas adsorption (relative pressure: 0.05 to 0.3).
Specific surface areas of iron(III) citrates of Comparative Examples 11 and 12 and Examples 1, 4, 5, 6, 7, and 10 to 23 were measured by nitrogen gas adsorption (relative pressure: 0.05 to 0.3) (BET surface area).

In order of rising Specific surface area:
1. O=C([O-])CC(O)(CC(=O)[O-])C(=O)[O-].[Fe+3] [Comparative Example 12, iron(III) citrate]  0.62 m^2/g
2. O=C([O-])CC(O)(CC(=O)[O-])C(=O)[O-].[Fe+3] [Comparative Example 11, iron(III) citrate]  0.80 m^2/g
3. O=C([O-])CC(O)(CC(=O)[O-])C(=O)[O-].[Fe+3] [Example 1, iron(III) citrate]  21.8 m^2/g
4. O=C([O-])CC(O)(CC(=O)[O-])C(=O)[O-].[Fe+3] [Example 13, Iron(III) citrate]  29.1 m^2/g
5. O=C([O-])CC(O)(CC(=O)[O-])C(=O)[O-].[Fe+3] [Example 7, Iron(III) citrate]  29.8 m^2/g
6. O=C([O-])CC(O)(CC(=O)[O-])C(=O)[O-].[Fe+3] [Example 10, Iron(III) citrate]  29.9 m^2/g
7. O=C([O-])CC(O)(CC(=O)[O-])C(=O)[O-].[Fe+3] [Example 11, Iron(III) citrate]  30.0 m^2/g
8. O=C([O-])CC(O)(CC(=O)[O-])C(=O)[O-].[Fe+3] [Example 12, Iron(III) citrate]  30.3 m^2/g
9. O=C([O-])CC(O)(CC(=O)[O-])C(=O)[O-].[Fe+3] [Example 6, Iron(III) citrate]  30.4 m^2/g
10. O=C([O-])CC(O)(CC(=O)[O-])C(=O)[O-].[Fe+3] [Example 5, Iron(III) citrate]  31.0 m^2/g
11. O=C([O-])CC(O)(CC(=O)[O-])C(=O)[O-].[Fe+3] [Example 17, Iron(III) citrate]  32.4 m^2/g
12. O=C([O-])CC(O)(CC(=O)[O-])C(=O)[O-].[Fe+3] [Example 22, Iron(III) citrate]  32.6 m^2/g
13. O=C([O-])CC(O)(CC(=O)[O-])C(=O)[O-].[Fe+3] [Example 23, Iron(III) citrate]  32.8 m^2/g
14. O=C([O-])CC(O)(CC(=O)[O-])C(=O)[O-].[Fe+3] [Example 4, iron(III) citrate]  33.4 m^2/g
15. O=C([O-])CC(O)(CC(=O)[O-])C(=O)[O-].[Fe+3] [Example 16, Iron(III) citrate]  33.7 m^2/g
16. O=C([O-])CC(O)(CC(=O)[O-])C(=O)[O-].[Fe+3] [Example 20, Iron(III) citrate]  33.8 m^2/g
17. O=C([O-])CC(O)(CC(=O)[O-])C(=O)[O-].[Fe+3] [Example 21, Iron(III) citrate]  35.5 m^2/g
18. O=C([O-])CC(O)(CC(=O)[O-])C(=O)[O-].[Fe+3] [Example 14, Iron(III) citrate]  37.9 m^2/g
19. O=C([O-])CC(O)(CC(=O)[O-])C(=O)[O-].[Fe+3] [Example 15, Iron(III) citrate]  38.5 m^2/g
20. O=C([O-])CC(O)(CC(=O)[O-])C(=O)[O-].[Fe+3] [Example 19, Iron(III) citrate]  39.8 m^2/g
21. O=C([O-])CC(O)(CC(=O)[O-])C(=O)[O-].[Fe+3] [Example 18, Iron(III) citrate]  39.9 m^2/g

From patent publication US9624155B2, “Iron (III) citrate, substantially free of beta-iron hydroxide oxide” (Japan Tobacco Inc., priority 2011, dated 2017)
